Test results published in US20250215030A1, “STAT MODULATORS AND USES THEREOF” (Recludix Pharma, Inc., priority 2022, published 2025).
pIC50: −log10 of the molar value.

Key:
pSTAT3 (pY705-STAT3) = target: T1, pSTAT3 (pY705-STAT3) (Homo sapiens, UniProt P40763); experiment: MSD-pSTAT-PBMC Assay (pSTAT3, IL-6 stimulated); assay type: cell-based; conditions: PBMC, compound 3 hrs, then 10 ng/mL IL-6 for 10 min; MSD pY705-STAT3; read-out: pSTAT3
T1 construct: host or cells: cryopreserved PBMC
How it was run: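 Phospho-STAT levels captured on anti-STAT3 or anti-STAT6 plates and detected with anti-pY705 or anti-pY641 antibodies (MSD read-out). Cryopreserved human PBMCs received compound for 3 h before a 10 min pulse of IL-6 (10 ng/mL, STAT3) or IL-4 (1 ng/mL, STAT6). IC50 fitted after unstimulated-background subtraction and DMSO normalization.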

pSTAT6 (pY641-STAT6) = target: T2, pSTAT6 (pY641-STAT6) (Homo sapiens, UniProt P42226); experiment: MSD-pSTAT-PBMC Assay (pSTAT6, IL-4 stimulated); assay type: cell-based; conditions: compound 3 hrs, then 1 ng/mL IL-4 for 10 min
T2 construct: host or cells: cryopreserved PBMC
T2 sequence (P42226 1-847): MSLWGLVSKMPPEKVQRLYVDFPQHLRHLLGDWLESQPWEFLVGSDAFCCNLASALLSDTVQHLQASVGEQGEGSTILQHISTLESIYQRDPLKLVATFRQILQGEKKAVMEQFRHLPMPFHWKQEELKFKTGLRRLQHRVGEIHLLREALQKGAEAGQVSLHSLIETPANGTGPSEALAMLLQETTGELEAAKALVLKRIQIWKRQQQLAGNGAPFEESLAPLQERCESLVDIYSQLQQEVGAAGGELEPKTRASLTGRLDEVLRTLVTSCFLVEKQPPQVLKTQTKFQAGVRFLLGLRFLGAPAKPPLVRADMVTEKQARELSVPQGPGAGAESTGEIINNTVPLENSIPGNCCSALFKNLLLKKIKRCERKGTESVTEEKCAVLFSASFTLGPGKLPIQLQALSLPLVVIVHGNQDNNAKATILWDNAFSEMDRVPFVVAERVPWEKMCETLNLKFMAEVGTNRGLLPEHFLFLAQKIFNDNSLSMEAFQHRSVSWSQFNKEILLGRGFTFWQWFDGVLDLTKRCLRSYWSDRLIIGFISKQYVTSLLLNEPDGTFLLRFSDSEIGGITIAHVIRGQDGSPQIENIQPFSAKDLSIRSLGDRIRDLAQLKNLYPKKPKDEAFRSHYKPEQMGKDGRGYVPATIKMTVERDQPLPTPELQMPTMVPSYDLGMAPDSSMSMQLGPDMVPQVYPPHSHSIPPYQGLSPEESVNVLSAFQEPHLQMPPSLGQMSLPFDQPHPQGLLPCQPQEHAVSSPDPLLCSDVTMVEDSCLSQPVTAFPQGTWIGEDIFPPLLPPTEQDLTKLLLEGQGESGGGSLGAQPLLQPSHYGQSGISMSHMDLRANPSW
Source text: Cryopreserved Peripheral Blood Mononuclear Cells (PBMC) are from AllCells. Recombinant Human IL-4 and IL-6 are from Peprotech. Mouse monoclonal anti-STAT3 antibody, rabbit monoclonal anti-pY705-STAT3 antibody, rabbit monoclonal Anti-pY641-STAT6 antibody, and lysis buffer are from Cell Signaling Technology (CST). Mouse monoclonal anti-STAT6 antibody is from BioLegend. Assay plates, blocker, and anti-rabbit secondary antibody are from Meso Scale Discovery (MSD).
Cryopreserved PBMCs were thawed out and allowed to recover overnight in IMDM+10% heat-inactivated FBS prior to plating 50,000 (STAT3) or 25,000 (STAT6) cells per well in 96-well U-bottom tissue culture plates. Cells were treated with compound for 3 hrs, then stimulated with 10 ng/mL IL-6 (STAT3) or 1 ng/mL IL-4 (STAT6) for 10 min. Cells were then spun down and washed with ice-cold PBS prior to lysing the cell pellet with 1× lysis buffer (CST) with 1× HALT protease and phosphatase inhibitor cocktail (Thermo). Lysates were transferred to and incubated overnight at 4° C. with shaking in QuickPlex 96-well high bind assay plates (MSD) pre-coated overnight with 30 μL per well of 0.6 μg/mL mouse monoclonal anti-STAT3 antibody (STAT3) or 2 μg/mL mouse monoclonal anti-STAT6 antibody (STAT6) in 1×PBS, and pre-blocked for 1 hour with 3% Blocker-A (MSD). Captured protein in the assay plates were then washed and probed with 25 μL per well of 0.25 μg/ml rabbit monoclonal anti-pY705-STAT3 antibody (STAT3) or 0.18 μg/ml rabbit monoclonal Anti-pY641-STAT6 antibody (STAT6) in 1% Blocker-A for 1 hour at room temperature with shaking, then washed and probed with 25 ul per well of 1 ug/mi Sulfo-TAG Labeled Goat Anti-Rabbit Antibody (MSD) in 1% Blocker-A for 1 hour at room temperature with shaking. Assay plates were then washed and 150 μL of 1× Read Buffer-T (MSD) was added to each well prior to reading on an SQ120 MSD Plate Reader. Assay signal from each sample was subtracted by the signal from unstimulated control wells and normalized to DMSO control wells. IC50 values were calculated using Graph Pad Prism Dose-Response Nonlinear Regression with variable slope. For both pSTAT3 and pSTAT6 A=≤100 nM; B=>100-1000 nM; C=>1000-3000 nM; and D=>3 μM.

T1 sequence (P40763 whole entry): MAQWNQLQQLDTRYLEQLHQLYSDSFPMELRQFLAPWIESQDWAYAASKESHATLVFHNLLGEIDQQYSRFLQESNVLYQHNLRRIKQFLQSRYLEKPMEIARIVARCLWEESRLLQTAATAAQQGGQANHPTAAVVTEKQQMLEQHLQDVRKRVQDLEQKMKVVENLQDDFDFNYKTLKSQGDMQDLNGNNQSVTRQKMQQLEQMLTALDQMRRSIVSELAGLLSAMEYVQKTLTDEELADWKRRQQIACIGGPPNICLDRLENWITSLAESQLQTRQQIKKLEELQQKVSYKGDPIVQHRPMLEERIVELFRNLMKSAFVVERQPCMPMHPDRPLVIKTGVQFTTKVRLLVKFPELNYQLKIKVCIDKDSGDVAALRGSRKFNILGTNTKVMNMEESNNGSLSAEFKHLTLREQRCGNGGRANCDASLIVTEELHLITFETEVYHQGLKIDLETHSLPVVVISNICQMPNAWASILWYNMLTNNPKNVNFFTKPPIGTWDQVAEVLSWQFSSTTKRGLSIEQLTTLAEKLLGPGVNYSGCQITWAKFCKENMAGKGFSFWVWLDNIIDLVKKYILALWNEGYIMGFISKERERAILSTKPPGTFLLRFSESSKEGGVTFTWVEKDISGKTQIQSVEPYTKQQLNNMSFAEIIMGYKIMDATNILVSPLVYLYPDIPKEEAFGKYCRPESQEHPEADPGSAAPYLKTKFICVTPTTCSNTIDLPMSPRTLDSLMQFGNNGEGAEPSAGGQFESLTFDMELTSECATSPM

Compound	pIC50 (pSTAT3 (pY705-STAT3))	pIC50 (pSTAT6 (pY641-STAT6))
CCCCC(=O)OCOP(=O)(OCOC(=O)CCCC)C(F)(F)c1ccc2sc(C(=O)N[C@H]3C[C@@H]4C[C@@H]4C[C@H]4CC[C@@H](C(=O)N5CC(C(=O)N6CCOCC6)C5)N4C3=O)cc2c1 [Example 4, (((difluoro(2-(((3S,6S,7aS,8aR,9aR)-3-(3-(morpholine-4-carbonyl)azetidine-1-carbonyl)-5-oxodecahydro-1H-cyclopropa[d]pyrrolo[1,2-a]azocin-6-yl)carbamoyl)benzo[b]thiophen-5-yl)methyl)phosphoryl)bis(oxy))bis(methylene) dipentanoate]	> 7.00	< 5.52
CC(C)(C)C(=O)OCOP(=O)(OCOC(=O)C(C)(C)C)C(F)(F)c1ccc2sc(C(=O)N[C@H]3C[C@@H]4C[C@@H]4C[C@H]4CC[C@@H](C(=O)N5CC(C(=O)N6CCOCC6)C5)N4C3=O)cc2c1 [Compound 145, (((difluoro(2-(((3S,6S,7aS, 8aR,9aR)-3-(3-(morpholine-4-carbonyl)azetidine-1-carbonyl)-5-oxodecahydro-1H-cyclopropa [d]pyrrolo[1,2-a]azocin-6-yl)carbamoyl)benzo[b]thiophen-5-yl)methyl)phosphoryl)bis(oxy)) bis(methylene) bis(2,2-dimethyl-propanoate)]	> 7.00	5.52 to 6.00
COC1(c2nccn2C)CN(C(=O)[C@@H]2CC[C@@H]3C[C@@H]4C[C@@H]4C[C@H](NC(=O)c4cc5cc(C(F)(F)P(=O)(OCCSC(=O)C(C)(C)C)OCCSC(=O)C(C)(C)C)ccc5s4)C(=O)N32)C1 [Compound 202, S,S′-((((difluoro(2-(((3S,6S,7aR, 8aS,9aR)-3-(3-methoxy-3-(1-methyl-1H-imidazol-2-yl)azetidine-1-carbonyl)-5-oxodecahydro-1H-cyclopropa[d]pyrrolo[1,2-a]azocin-6-yl)carbamoyl)benzo[b]thiophen-5-yl)methyl)phosphoryl)bis(oxy))bis(ethane-2,1-diyl)) bis(2,2-dimethyl-propanethioate)]	> 7.00	< 5.52
CC(C)(C)C(=O)OCOP(=O)(Cc1ccc2sc(C(=O)N[C@H]3C[C@@H]4C[C@@H]4C[C@H]4CC[C@@H](C(=O)N5CC(C(=O)N6CCOCC6)C5)N4C3=O)cc2c1)OCOC(=O)C(C)(C)C [Compound 150, ((((2-(((3S,6S, 7aS,8aR,9aR)-3-(3-morpholine-4-carbonyl)azetidine-1-carbonyl)-5-oxodecahydro-1H-cyclopropa [d]pyrrolo[1,2-a]azocin-6-yl)carbamoyl)benzo [b]thiophen-5-yl)methyl)phosphoryl) bis(oxy)) bis(methylene) bis(2,2-dimethyl-propanoate)]	> 7.00	< 5.52
CCCC(=O)SCCOP(=O)(OCCSC(=O)CCC)C(F)(F)c1ccc2sc(C(=O)N[C@H]3C[C@@H]4C[C@@H]4C[C@H]4CC[C@@H](C(=O)N5CC(C(=O)N6CCOCC6)C5)N4C3=O)cc2c1 [Compound 178, S,S′-((((difluoro(2-(((3S,6S,7aS, 8aR,9aR)-3-(3-(morpholine-4-carbonyl)azetidine-1-carbonyl)-5-oxodecahydro-1H-cyclopropa[d]pyrrolo[1,2-a]azocin-6-yl)carbamoyl)benzo[b]thiophen-5-yl)methyl)phosphoryl)bis(oxy))bis(ethane-2,1-diyl)) dibutane-thioate]	> 7.00	6.00 to 7.00
COCC(C)(C)OC(=O)OCOP(=O)(OCOC(=O)OC(C)(C)COC)C(F)(F)c1ccc2sc(C(=O)N[C@H]3C[C@H]4C[C@H]4C[C@H]4CC[C@@H](C(=O)N5CC(c6cccnc6)C5)N4C3=O)cc2c1 [Compound 168, (((difluoro(2-(((3S,6S,7aR, 8aS,9aR)-5-oxo-3-(3-(pyridin-3-yl)azetidine-1-carbonyl)decahydro-1H-cyclopropa[d]pyrrolo[1,2-a]azocin-6-yl)carbamoyl)benzo[b]thiophen-5-yl)methyl)phosphoryl)bis(oxy)) bis(methylene) bis(1-methoxy-2-methylpropan-2-yl) bis(carbonate)]	> 7.00	< 5.52
CC(C)(C)C(=O)SCCOP(=O)(OCCSC(=O)C(C)(C)C)C(F)(F)c1ccc2sc(C(=O)N[C@H]3C[C@@H]4C[C@@H]4C[C@H]4CC[C@@H](C(=O)N5CC(n6ccnc6)C5)N4C3=O)cc2c1 [Compound 181, S,S′-(((((2-(((3S,6S,7aS, 8aR,9aR)-3-(3-(1H-imidazol-1-yl)azetidine-1-carbonyl)-5-oxodecahydro-1H-cyclopropa[d]pyrrolo[1,2-a]azocin-6-yl)carbamoyl)benzo[b]thiophen-5-yl)difluoromethyl)phosphoryl)bis(oxy))bis(ethane-2,1-diyl)) bis(2,2-dimethyl-propanethioate)]	> 7.00	< 5.52
CC(C)(C)C(=O)OCOP(=O)(OCOC(=O)C(C)(C)C)C(F)(F)c1ccc2sc(C(=O)N[C@H]3C[C@H]4C[C@H]4C[C@H]4CC[C@@H](C(=O)NC5CN(C(=O)CCC(F)(F)F)C5)N4C3=O)cc2c1 [Compound 215, (((difluoro(2-(((3S,6S,7aR, 8aS,9aR)-5-oxo-3-((1-(4,4,4-trifluoro-butanoyl)azetidin-3-yl)carbamoyl)decahydro-1H-cyclopropa[d]pyrrolo[1,2-a]azocin-6-yl)carbamoyl)benzo[b]thiophen-5-yl)methyl)phosphoryl)bis(oxy)) bis(methylene) bis(2,2-dimethyl-propanoate)]	> 7.00	6.00 to 7.00
CCOC(=O)CCCOP(=O)(OCCCC(=O)OCC)C(F)(F)c1ccc2sc(C(=O)N[C@H]3C[C@@H]4C[C@@H]4C[C@H]4CC[C@@H](C(=O)N5CC(C(=O)N6CCOCC6)C5)N4C3=O)cc2c1 [Compound 177, diethyl 4,4′-(((difluoro(2-(((3S,6S,7aS, 8aR,9aR)-3-(3-(morpholine-4-carbonyl)azetidine-1-carbonyl)-5-oxodecahydro-1H-cyclopropa[d]pyrrolo[1,2-a]azocin-6-yl)carbamoyl)benzo[b]thiophen-5-yl)methyl)phosphoryl)bis(oxy)) dibutyrate]	< 5.52	< 5.52
O=C(OCOP(=O)(OCOC(=O)OC1CCOCC1)C(F)(F)c1ccc2sc(C(=O)N[C@H]3C[C@@H]4C[C@@H]4C[C@H]4CC[C@@H](C(=O)N5CC(C(=O)N6CCOCC6)C5)N4C3=O)cc2c1)OC1CCOCC1 [Compound 162, (((difluoro(2-(((3S,6S,7aS, 8aR,9aR)-3-(3-(morpholine-4-carbonyl)azetidine-1-carbonyl)-5-oxodecahydro-1H-cyclopropa [d]pyrrolo[1,2-a]azocin-6-yl)carbamoyl)benzo[b]thiophen-5-yl)methyl)phosphoryl)bis(oxy)) bis(methylene) bis(tetrahydro-2H-pyran-4-yl) bis(carbonate)]	6.00 to 7.00	< 5.52
